Patent US9850271B2, “Crystalline solvate forms of a pharmaceutical” (NeurMedix, Inc., priority 2008, dated 2017)

Experiment: Brief thermal stress of amorphous solid (physical stability)
Type: physicochemical
Conditions: brief thermal stress at 40° C.

C#C[C@]1(O)CC[C@H]2[C@@H]3[C@@H](O)C=C4C[C@@H](O)CC[C@]4(C)[C@H]3CC[C@@]21C [amorphous Compound 1, 17α-ethynyl-androst-5-ene-3β,7β,17β-triol]
solid state form after brief thermal stress: resulted in crystalline material that contains Form I
